{"source": "ChEMBL document CHEMBL1201862", "about": "“PubChem BioAssay data set” (2004)", "assay_in_all_cases": "NCI-60 cell line screen, 48 h", "key": {"BT-549": {"system": "BT-549"}, "COLO 205": {"system": "COLO 205"}, "DU-145": {"system": "DU-145"}, "EKVX": {"system": "EKVX"}, "HOP-62": {"system": "HOP-62"}, "HOP-92": {"system": "HOP-92"}, "HT-29": {"system": "HT-29"}, "Hs-578T": {"system": "Hs-578T"}, "IGROV-1": {"system": "IGROV-1"}, "K562": {"system": "K562"}, "M14": {"system": "M14"}, "Malme-3M": {"system": "Malme-3M"}, "NCI-H522": {"system": "NCI-H522"}, "OVCAR-5": {"system": "OVCAR-5"}, "SF-539": {"system": "SF-539"}, "SK-MEL-28": {"system": "SK-MEL-28"}, "SN12C": {"system": "SN12C"}, "SNB-19": {"system": "SNB-19"}, "TK-10": {"system": "TK-10"}, "A498": {"system": "A498"}}, "note": "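Step 1: Grow cells in 96-well plates. Step 2: Expose to compound for 48 hours at 5 concentrations. Step 3: Interpolate endpoints linearly; if unreached, use highest concentration. GI50: concentration for 50% inhibition of growth.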 Activity calls are given as the source filed them. No stated cut-off is given here; in the data, active = GI50 up to about 1.1 µM and inactive = higher.", "data": [{"smiles": "NC(CCC(=O)O)C(=O)N1CCN(c2nc(N3CCCC3)c3nc(Cl)c(NCc4ccccc4)nc3n2)CC1", "note": "(centres undefined)", "values": [{"measurement": "GI50", "setting": "BT-549", "value": "12.1 µM (inactive)"}, {"measurement": "GI50", "setting": "COLO 205", "value": "10.7 µM (inactive)"}, {"measurement": "GI50", "setting": "DU-145", "value": "8.43 µM (inactive)"}, {"measurement": "GI50", "setting": "EKVX", "value": "13.8 µM (inactive)"}, {"measurement": "GI50", "setting": "HOP-62", "value": "13.2 µM (inactive)"}, {"measurement": "GI50", "setting": "HOP-92", "value": "15.8 µM (inactive)"}, {"measurement": "GI50", "setting": "HT-29", "value": "9.95 µM (inactive)"}, {"measurement": "GI50", "setting": "Hs-578T", "value": "20 µM (inactive)"}, {"measurement": "GI50", "setting": "IGROV-1", "value": "21.2 µM (inactive)"}, {"measurement": "GI50", "setting": "K562", "value": "12.7 µM (inactive)"}, {"measurement": "GI50", "setting": "M14", "value": "10 µM (inactive)"}, {"measurement": "GI50", "setting": "Malme-3M", "value": "17.3 µM (inactive)"}, {"measurement": "GI50", "setting": "NCI-H522", "value": "14.8 µM (inactive)"}, {"measurement": "GI50", "setting": "OVCAR-5", "value": "18.7 µM (inactive)"}, {"measurement": "GI50", "setting": "SF-539", "value": "13.2 µM (inactive)"}, {"measurement": "GI50", "setting": "SK-MEL-28", "value": "9.48 µM (inactive)"}, {"measurement": "GI50", "setting": "SN12C", "value": "15.8 µM (inactive)"}, {"measurement": "GI50", "setting": "SNB-19", "value": "17.5 µM (inactive)"}, {"measurement": "GI50", "setting": "TK-10", "value": "17.1 µM (inactive)"}]}, {"smiles": "Cc1ccc(O)cc1.Cc1cccc(O)c1.Cc1ccccc1O", "note": "[CRESOL]", "values": [{"measurement": "GI50", "setting": "A498", "value": "> 100 µM (inactive)"}, {"measurement": "GI50", "setting": "BT-549", "value": "> 100 µM (inactive)"}, {"measurement": "GI50", "setting": "COLO 205", "value": "> 100 µM (inactive)"}, {"measurement": "GI50", "setting": "DU-145", "value": "> 100 µM (inactive)"}, {"measurement": "GI50", "setting": "EKVX", "value": "> 100 µM (inactive)"}, {"measurement": "GI50", "setting": "HOP-62", "value": "> 100 µM (inactive)"}, {"measurement": "GI50", "setting": "HT-29", "value": "> 100 µM (inactive)"}, {"measurement": "GI50", "setting": "Hs-578T", "value": "4.75 µM (inactive)"}, {"measurement": "GI50", "setting": "IGROV-1", "value": "88.9 µM (inactive)"}, {"measurement": "GI50", "setting": "K562", "value": "> 100 µM (inactive)"}, {"measurement": "GI50", "setting": "M14", "value": "> 100 µM (inactive)"}, {"measurement": "GI50", "setting": "Malme-3M", "value": "8.61 µM (inactive)"}, {"measurement": "GI50", "setting": "NCI-H522", "value": "8.34 µM (inactive)"}, {"measurement": "GI50", "setting": "OVCAR-5", "value": "> 100 µM (inactive)"}, {"measurement": "GI50", "setting": "SF-539", "value": "> 100 µM (inactive)"}, {"measurement": "GI50", "setting": "SK-MEL-28", "value": "> 100 µM (inactive)"}, {"measurement": "GI50", "setting": "SN12C", "value": "> 100 µM (inactive)"}, {"measurement": "GI50", "setting": "SNB-19", "value": "> 100 µM (inactive)"}, {"measurement": "GI50", "setting": "TK-10", "value": "> 100 µM (inactive)"}]}, {"smiles": "Nc1ccc(Oc2ccc(C34CC5CC(C3)CC(c3ccc(Oc6ccc(N)cc6C(F)(F)F)cc3)(C5)C4)cc2)c(C(F)(F)F)c1", "values": [{"measurement": "GI50", "setting": "A498", "value": "18.3 µM (inactive)"}, {"measurement": "GI50", "setting": "BT-549", "value": "21.9 µM (inactive)"}, {"measurement": "GI50", "setting": "COLO 205", "value": "19.1 µM (inactive)"}, {"measurement": "GI50", "setting": "DU-145", "value": "35.2 µM (inactive)"}, {"measurement": "GI50", "setting": "EKVX", "value": "15.5 µM (inactive)"}, {"measurement": "GI50", "setting": "HOP-62", "value": "18.2 µM (inactive)"}, {"measurement": "GI50", "setting": "HT-29", "value": "17.2 µM (inactive)"}, {"measurement": "GI50", "setting": "Hs-578T", "value": "17.1 µM (inactive)"}, {"measurement": "GI50", "setting": "IGROV-1", "value": "19.5 µM (inactive)"}, {"measurement": "GI50", "setting": "K562", "value": "44 µM (inactive)"}, {"measurement": "GI50", "setting": "M14", "value": "16.9 µM (inactive)"}, {"measurement": "GI50", "setting": "Malme-3M", "value": "22.2 µM (inactive)"}, {"measurement": "GI50", "setting": "NCI-H522", "value": "14.4 µM (inactive)"}, {"measurement": "GI50", "setting": "OVCAR-5", "value": "27 µM (inactive)"}, {"measurement": "GI50", "setting": "SK-MEL-28", "value": "43.3 µM (inactive)"}, {"measurement": "GI50", "setting": "SN12C", "value": "31.1 µM (inactive)"}, {"measurement": "GI50", "setting": "SNB-19", "value": "22.5 µM (inactive)"}, {"measurement": "GI50", "setting": "TK-10", "value": "16.1 µM (inactive)"}]}, {"smiles": "ClC(Cl)(Cl)C1CCOC1n1nnc2ccccc21", "note": "(centres undefined)", "values": [{"measurement": "GI50", "setting": "A498", "value": "> 100 µM (inactive)"}, {"measurement": "GI50", "setting": "BT-549", "value": "25.9 µM (inactive)"}, {"measurement": "GI50", "setting": "COLO 205", "value": "> 100 µM (inactive)"}, {"measurement": "GI50", "setting": "DU-145", "value": "> 100 µM (inactive)"}, {"measurement": "GI50", "setting": "EKVX", "value": "> 100 µM (inactive)"}, {"measurement": "GI50", "setting": "HOP-62", "value": "> 100 µM (inactive)"}, {"measurement": "GI50", "setting": "HT-29", "value": "73.5 µM (inactive)"}, {"measurement": "GI50", "setting": "Hs-578T", "value": "89.7 µM (inactive)"}, {"measurement": "GI50", "setting": "IGROV-1", "value": "> 100 µM (inactive)"}, {"measurement": "GI50", "setting": "K562", "value": "24.1 µM (inactive)"}, {"measurement": "GI50", "setting": "M14", "value": "> 100 µM (inactive)"}, {"measurement": "GI50", "setting": "Malme-3M", "value": "> 100 µM (inactive)"}, {"measurement": "GI50", "setting": "NCI-H522", "value": "82.4 µM (inactive)"}, {"measurement": "GI50", "setting": "OVCAR-5", "value": "> 100 µM (inactive)"}, {"measurement": "GI50", "setting": "SF-539", "value": "> 100 µM (inactive)"}, {"measurement": "GI50", "setting": "SN12C", "value": "> 100 µM (inactive)"}, {"measurement": "GI50", "setting": "TK-10", "value": "> 100 µM (inactive)"}]}, {"smiles": "CC(C)c1cc(C(C)C)c(S(=O)(=O)N/N=C2\\CC3CCC2(C)C3(C)C)c(C(C)C)c1", "note": "(centres undefined)", "values": [{"measurement": "GI50", "setting": "A498", "value": "0.0222 µM (active)"}, {"measurement": "GI50", "setting": "BT-549", "value": "> 100 µM (inactive)"}, {"measurement": "GI50", "setting": "COLO 205", "value": "12.9 µM (inactive)"}, {"measurement": "GI50", "setting": "DU-145", "value": "18 µM (inactive)"}, {"measurement": "GI50", "setting": "EKVX", "value": "11 µM (inactive)"}, {"measurement": "GI50", "setting": "HOP-62", "value": "74.8 µM (inactive)"}, {"measurement": "GI50", "setting": "HT-29", "value": "14.1 µM (inactive)"}, {"measurement": "GI50", "setting": "Hs-578T", "value": "29.7 µM (inactive)"}, {"measurement": "GI50", "setting": "IGROV-1", "value": "27.3 µM (inactive)"}, {"measurement": "GI50", "setting": "K562", "value": "8.53 µM (inactive)"}, {"measurement": "GI50", "setting": "M14", "value": "51.6 µM (inactive)"}, {"measurement": "GI50", "setting": "Malme-3M", "value": "25.5 µM (inactive)"}, {"measurement": "GI50", "setting": "NCI-H522", "value": "5.37 µM (inactive)"}, {"measurement": "GI50", "setting": "OVCAR-5", "value": "48 µM (inactive)"}, {"measurement": "GI50", "setting": "SK-MEL-28", "value": "31.8 µM (inactive)"}, {"measurement": "GI50", "setting": "SN12C", "value": "12.4 µM (inactive)"}, {"measurement": "GI50", "setting": "SNB-19", "value": "27.5 µM (inactive)"}, {"measurement": "GI50", "setting": "TK-10", "value": "38.8 µM (inactive)"}]}, {"smiles": "Cc1cccc(/C=N/NC(=S)NC(C)(C)C)n1", "values": [{"measurement": "GI50", "setting": "A498", "value": "> 100 µM (inactive)"}, {"measurement": "GI50", "setting": "BT-549", "value": "> 100 µM (inactive)"}, {"measurement": "GI50", "setting": "COLO 205", "value": "6.14 µM (inactive)"}, {"measurement": "GI50", "setting": "DU-145", "value": "66.8 µM (inactive)"}, {"measurement": "GI50", "setting": "HOP-62", "value": "98.9 µM (inactive)"}, {"measurement": "GI50", "setting": "HT-29", "value": "3.12 µM (inactive)"}, {"measurement": "GI50", "setting": "Hs-578T", "value": "> 100 µM (inactive)"}, {"measurement": "GI50", "setting": "IGROV-1", "value": "66.7 µM (inactive)"}, {"measurement": "GI50", "setting": "K562", "value": "5.15 µM (inactive)"}, {"measurement": "GI50", "setting": "M14", "value": "88.7 µM (inactive)"}, {"measurement": "GI50", "setting": "Malme-3M", "value": "> 100 µM (inactive)"}, {"measurement": "GI50", "setting": "NCI-H522", "value": "14.5 µM (inactive)"}, {"measurement": "GI50", "setting": "OVCAR-5", "value": "95.1 µM (inactive)"}, {"measurement": "GI50", "setting": "SF-539", "value": "> 100 µM (inactive)"}, {"measurement": "GI50", "setting": "SK-MEL-28", "value": "> 100 µM (inactive)"}, {"measurement": "GI50", "setting": "SN12C", "value": "> 100 µM (inactive)"}, {"measurement": "GI50", "setting": "SNB-19", "value": "> 100 µM (inactive)"}, {"measurement": "GI50", "setting": "TK-10", "value": "75.2 µM (inactive)"}]}]}
